ChEMBL document CHEMBL3822399, “Discovery of novel, high potent, ABC type PTP1B inhibitors with TCPTP selectivity and cellular activity” (Eur J Med Chem, 2016)
Each block holds one compound with its values, some of them ahead of it. Activity calls are given as the source filed them. The rule behind the calls is not given here.

Key:
[1] = target: T1, Receptor-type tyrosine-protein phosphatase F (Homo sapiens, UniProt P10586); test: Inhibition of human LAR using pNPP as substrate incubated for 30 mins
[2] = target: T2, Tyrosine-protein phosphatase non-receptor type 11 (Homo sapiens, UniProt Q06124); test: Inhibition of human SHP2 using pNPP as substrate incubated for 30 mins
T2 sequence (Q06124 whole entry): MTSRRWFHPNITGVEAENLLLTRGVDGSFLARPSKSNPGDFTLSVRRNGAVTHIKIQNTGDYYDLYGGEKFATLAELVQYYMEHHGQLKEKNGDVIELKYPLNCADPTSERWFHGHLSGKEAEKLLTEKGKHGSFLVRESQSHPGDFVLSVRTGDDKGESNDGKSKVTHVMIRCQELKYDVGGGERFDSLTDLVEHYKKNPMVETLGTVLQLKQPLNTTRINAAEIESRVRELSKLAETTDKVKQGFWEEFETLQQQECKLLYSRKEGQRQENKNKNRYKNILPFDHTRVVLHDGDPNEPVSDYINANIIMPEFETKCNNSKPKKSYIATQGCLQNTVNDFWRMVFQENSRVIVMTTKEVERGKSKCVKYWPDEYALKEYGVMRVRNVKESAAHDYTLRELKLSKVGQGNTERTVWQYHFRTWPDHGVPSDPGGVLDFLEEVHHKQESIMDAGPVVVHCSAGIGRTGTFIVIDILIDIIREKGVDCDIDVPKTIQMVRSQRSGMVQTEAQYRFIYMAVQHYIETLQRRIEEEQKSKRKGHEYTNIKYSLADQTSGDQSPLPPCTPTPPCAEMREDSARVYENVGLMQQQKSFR

[3] = target: T3, Tyrosine-protein phosphatase non-receptor type 1 (Homo sapiens) (UniProt P18031); test: Inhibition of recombinant PTP1B (unknown origin) using pNPP as substrate at 25 uM incubated for 30 mins relative to control
T3 sequence (whole entry): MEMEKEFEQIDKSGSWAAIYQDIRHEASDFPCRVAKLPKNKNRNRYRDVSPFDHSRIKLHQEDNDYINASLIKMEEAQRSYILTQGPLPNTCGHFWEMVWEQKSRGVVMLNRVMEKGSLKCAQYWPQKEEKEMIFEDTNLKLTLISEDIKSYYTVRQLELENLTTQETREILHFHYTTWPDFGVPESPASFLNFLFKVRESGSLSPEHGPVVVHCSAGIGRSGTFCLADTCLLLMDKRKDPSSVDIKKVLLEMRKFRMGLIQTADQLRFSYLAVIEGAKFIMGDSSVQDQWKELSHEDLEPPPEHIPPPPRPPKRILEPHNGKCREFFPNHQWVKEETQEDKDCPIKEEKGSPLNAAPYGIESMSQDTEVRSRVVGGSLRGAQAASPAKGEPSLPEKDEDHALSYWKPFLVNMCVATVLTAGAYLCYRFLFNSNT

[4] = target: T4, Tyrosine-protein phosphatase non-receptor type 1 (Rattus norvegicus) (UniProt P20417); test: Inhibition of PTP1B in rat L6 cells assessed as increase in insulin-stimulated 2-NBDG uptake at 5 uM preincubated for 4 hrs followed by insulin stimulation for 10 mins and subsequent addition of 2-NBDG measured after 30 mins by fluorescence assay relative to control; assay type: cell-based; set-up: scale not given: the % may be the effect or the level left
T4 sequence (whole entry): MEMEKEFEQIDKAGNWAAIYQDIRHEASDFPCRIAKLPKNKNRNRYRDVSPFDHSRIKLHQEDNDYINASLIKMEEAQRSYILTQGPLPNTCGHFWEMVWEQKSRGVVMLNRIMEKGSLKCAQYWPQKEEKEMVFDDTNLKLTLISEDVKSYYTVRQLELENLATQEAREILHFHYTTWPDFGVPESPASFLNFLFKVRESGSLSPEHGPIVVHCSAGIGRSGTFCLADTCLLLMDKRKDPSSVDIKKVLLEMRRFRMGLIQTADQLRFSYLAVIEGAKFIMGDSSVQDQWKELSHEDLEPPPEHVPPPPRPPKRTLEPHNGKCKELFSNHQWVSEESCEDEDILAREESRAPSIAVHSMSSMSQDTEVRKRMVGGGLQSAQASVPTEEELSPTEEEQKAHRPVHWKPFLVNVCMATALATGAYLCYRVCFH

[5] = target: T1, Receptor-type tyrosine-protein phosphatase F; test: Inhibition of human LAR using pNPP as substrate at 25 uM incubated for 30 mins relative to control
[6] = target: T5, Tyrosine-protein phosphatase non-receptor type 1 (Homo sapiens, UniProt P18031); test: Inhibition of recombinant PTP1B (unknown origin) using pNPP as substrate incubated for 30 mins
T5 sequence (P18031 whole entry): T3 sequence (whole entry)

[7] = target: T6, Tyrosine-protein phosphatase non-receptor type 6 (Homo sapiens, UniProt P29350); test: Inhibition of human SHP1 using pNPP as substrate at 25 uM incubated for 30 mins relative to control
[8] = target: T4, Tyrosine-protein phosphatase non-receptor type 1 (Rattus norvegicus); test: Inhibition of PTP1B in rat L6 cells assessed as increase in insulin-stimulated 2-NBDG uptake at 20 uM preincubated for 4 hrs followed by insulin stimulation for 10 mins and subsequent addition of 2-NBDG measured after 30 mins by fluorescence assay relative to control; assay type: cell-based; set-up: scale not given: the % may be the effect or the level left
[9] = target: T7, Tyrosine-protein phosphatase non-receptor type 11 (Homo sapiens) (UniProt Q06124); test: Inhibition of human SHP2 using pNPP as substrate at 25 uM incubated for 30 mins relative to control
T7 sequence (whole entry): T2 sequence (Q06124 whole entry)

[10] = target: T8, Tyrosine-protein phosphatase non-receptor type 2 (Homo sapiens) (UniProt P17706); test: Inhibition of human TCPTP using pNPP as substrate at 25 uM incubated for 30 mins relative to control
T8 sequence (whole entry): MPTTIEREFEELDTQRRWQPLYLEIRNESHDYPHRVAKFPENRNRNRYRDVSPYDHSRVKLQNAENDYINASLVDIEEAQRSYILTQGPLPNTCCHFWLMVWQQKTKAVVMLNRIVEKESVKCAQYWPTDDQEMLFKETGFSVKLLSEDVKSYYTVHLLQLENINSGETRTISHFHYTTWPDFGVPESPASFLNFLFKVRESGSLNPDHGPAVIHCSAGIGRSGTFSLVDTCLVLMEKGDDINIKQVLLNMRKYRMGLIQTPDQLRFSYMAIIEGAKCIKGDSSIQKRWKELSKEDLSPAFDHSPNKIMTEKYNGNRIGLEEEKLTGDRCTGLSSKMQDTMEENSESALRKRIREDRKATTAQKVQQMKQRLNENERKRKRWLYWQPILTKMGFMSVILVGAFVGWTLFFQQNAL

[11] = target: T4, Tyrosine-protein phosphatase non-receptor type 1 (Rattus norvegicus); test: Inhibition of PTP1B in rat L6 cells assessed as increase in insulin-stimulated 2-NBDG uptake at 10 uM preincubated for 4 hrs followed by insulin stimulation for 10 mins and subsequent addition of 2-NBDG measured after 30 mins by fluorescence assay relative to control; assay type: cell-based; set-up: scale not given: the % may be the effect or the level left
[12] = target: T6, Tyrosine-protein phosphatase non-receptor type 6; test: Inhibition of human SHP1 using pNPP as substrate incubated for 30 mins
[13] = target: T9, Tyrosine-protein phosphatase non-receptor type 2 (Homo sapiens, UniProt P17706); test: Inhibition of human TCPTP using pNPP as substrate incubated for 30 mins
T9 sequence (P17706 whole entry): T8 sequence (whole entry)

Homo sapiens = organism: Homo sapiens; test: Selectivity ratio of IC50 for human SHP1 to IC50 for recombinant PTP1B (unknown origin)
CHO = test: Inhibition of PTP1B in CHO cells expressing human IR assessed as increase in insulin-mediated IR-beta phosphorylation at tyrosine residue 20 at 15 to 30 uM preincubated for 4 hrs followed by insulin stimulation measured after 10 mins by western blot analysis; assay type: cell-based; settings: Cricetulus griseus

T6 sequence (P29350 whole entry): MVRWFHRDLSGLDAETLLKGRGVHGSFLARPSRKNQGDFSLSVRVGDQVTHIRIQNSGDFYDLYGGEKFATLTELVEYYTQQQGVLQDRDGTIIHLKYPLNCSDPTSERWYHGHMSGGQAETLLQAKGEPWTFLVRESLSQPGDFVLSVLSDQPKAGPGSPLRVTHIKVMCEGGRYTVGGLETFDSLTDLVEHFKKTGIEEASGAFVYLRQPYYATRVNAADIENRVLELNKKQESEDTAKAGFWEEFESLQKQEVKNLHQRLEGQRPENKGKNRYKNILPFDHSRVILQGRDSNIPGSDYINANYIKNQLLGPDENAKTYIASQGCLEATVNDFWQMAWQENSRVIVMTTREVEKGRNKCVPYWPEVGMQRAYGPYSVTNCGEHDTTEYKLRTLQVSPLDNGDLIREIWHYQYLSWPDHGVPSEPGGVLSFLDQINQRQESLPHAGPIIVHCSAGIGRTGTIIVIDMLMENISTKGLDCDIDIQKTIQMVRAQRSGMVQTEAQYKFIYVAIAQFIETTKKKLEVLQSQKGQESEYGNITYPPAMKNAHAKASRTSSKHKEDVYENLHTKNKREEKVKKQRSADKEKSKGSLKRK
T1 sequence (P10586 whole entry): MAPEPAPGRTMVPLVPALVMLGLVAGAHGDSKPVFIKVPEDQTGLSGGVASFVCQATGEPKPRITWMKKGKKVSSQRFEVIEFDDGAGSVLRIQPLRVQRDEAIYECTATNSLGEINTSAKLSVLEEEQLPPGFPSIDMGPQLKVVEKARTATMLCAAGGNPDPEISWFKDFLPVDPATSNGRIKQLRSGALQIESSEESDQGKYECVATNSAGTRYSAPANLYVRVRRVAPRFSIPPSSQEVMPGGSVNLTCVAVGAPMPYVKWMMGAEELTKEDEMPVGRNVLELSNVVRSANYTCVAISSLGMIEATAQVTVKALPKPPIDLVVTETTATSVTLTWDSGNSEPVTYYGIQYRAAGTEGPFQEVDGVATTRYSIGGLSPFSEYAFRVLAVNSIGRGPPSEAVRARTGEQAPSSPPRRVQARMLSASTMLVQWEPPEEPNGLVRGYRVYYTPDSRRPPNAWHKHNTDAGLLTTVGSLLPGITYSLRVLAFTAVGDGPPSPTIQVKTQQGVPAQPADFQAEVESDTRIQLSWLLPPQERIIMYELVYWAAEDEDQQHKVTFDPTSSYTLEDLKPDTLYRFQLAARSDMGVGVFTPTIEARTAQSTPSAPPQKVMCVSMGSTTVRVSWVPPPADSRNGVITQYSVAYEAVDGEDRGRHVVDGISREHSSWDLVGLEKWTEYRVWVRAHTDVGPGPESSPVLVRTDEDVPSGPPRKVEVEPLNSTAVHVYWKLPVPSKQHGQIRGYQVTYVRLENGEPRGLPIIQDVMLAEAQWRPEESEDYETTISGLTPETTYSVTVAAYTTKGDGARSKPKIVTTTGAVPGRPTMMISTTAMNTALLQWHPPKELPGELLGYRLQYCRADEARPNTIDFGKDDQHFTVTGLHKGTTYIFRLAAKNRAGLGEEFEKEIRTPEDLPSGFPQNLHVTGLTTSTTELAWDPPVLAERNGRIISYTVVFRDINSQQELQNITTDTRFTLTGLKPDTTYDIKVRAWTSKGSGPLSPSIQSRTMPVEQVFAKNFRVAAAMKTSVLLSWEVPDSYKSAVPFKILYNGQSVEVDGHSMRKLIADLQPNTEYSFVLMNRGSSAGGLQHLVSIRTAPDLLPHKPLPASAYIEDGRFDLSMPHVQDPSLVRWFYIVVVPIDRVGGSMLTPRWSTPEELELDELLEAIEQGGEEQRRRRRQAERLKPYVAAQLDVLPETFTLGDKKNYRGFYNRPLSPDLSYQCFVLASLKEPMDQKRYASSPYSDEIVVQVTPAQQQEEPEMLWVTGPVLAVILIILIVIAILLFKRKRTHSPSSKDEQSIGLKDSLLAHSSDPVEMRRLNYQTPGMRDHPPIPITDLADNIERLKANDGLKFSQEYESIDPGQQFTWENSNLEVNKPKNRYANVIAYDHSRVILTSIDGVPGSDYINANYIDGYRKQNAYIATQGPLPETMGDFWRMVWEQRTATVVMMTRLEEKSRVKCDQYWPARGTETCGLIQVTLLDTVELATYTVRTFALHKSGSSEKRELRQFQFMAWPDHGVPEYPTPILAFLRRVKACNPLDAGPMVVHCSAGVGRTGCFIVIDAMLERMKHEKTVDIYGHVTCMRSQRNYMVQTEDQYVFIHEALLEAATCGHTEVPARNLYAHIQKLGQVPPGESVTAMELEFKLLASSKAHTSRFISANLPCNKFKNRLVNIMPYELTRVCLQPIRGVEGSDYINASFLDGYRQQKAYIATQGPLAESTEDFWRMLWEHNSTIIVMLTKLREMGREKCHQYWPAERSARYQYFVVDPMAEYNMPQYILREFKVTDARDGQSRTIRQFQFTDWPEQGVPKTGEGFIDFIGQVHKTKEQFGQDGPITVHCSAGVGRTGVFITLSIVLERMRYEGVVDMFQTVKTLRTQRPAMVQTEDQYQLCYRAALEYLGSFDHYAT

IC50 [1]: 22300 nM
IC50 [2]: 11600 nM
SMILES: CC1(C)CC[C@]2(C(=O)O)CC[C@]3(C)C(=CC[C@@H]4[C@@]5(C)CC[C@H](O)C(C)(C)[C@@H]5CC[C@]43C)[C@@H]2C1 [OLEANOLIC_ACID]

inhibition [3]: < 50%
SMILES: COC(=O)CN(c1ccc(CN(c2ccc(OCc3cccc(C)c3)c(C(=O)OC)c2)S(=O)(=O)Cc2ccccc2)cc1)S(C)(=O)=O

Activity [4]: 6.9%
inhibition [5]: < 50%
IC50 [6]: 936 nM
inhibition [7]: < 50%
Activity [8]: 27.7%
inhibition [9]: < 50%
inhibition [10]: < 50%
Activity [11]: 26.1%
SMILES: CCCOc1ccc(N(Cc2ccc(N(CC(=O)OC)S(C)(=O)=O)cc2)S(=O)(=O)Cc2ccccc2)cc1C(=O)OC

IC50 [12]: 6460 nM
IC50 [13]: 427 nM
inhibition [5]: < 50%
IC50 [6]: 355 nM
inhibition [9]: < 50%
Ratio IC50 (Homo sapiens): 18
SMILES: COC(=O)CN(c1ccc(CN(c2ccc(OCc3ccccc3)c(C(=O)OC)c2)S(=O)(=O)Cc2ccccc2)cc1)S(C)(=O)=O

IC50 [6]: 4830 nM
SMILES: CCCCOc1ccc(N(Cc2ccc(N(CC(=O)OC)S(C)(=O)=O)cc2)S(=O)(=O)Cc2ccccc2)cc1C(=O)OC

IC50 [6]: 16000 nM
SMILES: COC(=O)CN(c1ccc(CN(c2ccc(OCc3ccccc3)cc2)S(=O)(=O)Cc2ccccc2)cc1)S(C)(=O)=O

IC50 [12]: 2450 nM
IC50 [13]: 760 nM
Activity [4]: 16%
IC50 [6]: 50 nM
Activity [8]: 38.1%
IC50 [1]: 12600 nM
Ratio IC50 (Homo sapiens): 49
Activity [11]: 19%
IC50 [2]: 2160 nM
SMILES: COC(=O)CN(c1ccc(CN(c2ccc(OCc3ccc(C)cc3)c(C(=O)OC)c2)S(=O)(=O)Cc2ccccc2)cc1)S(C)(=O)=O
inhibition (CHO): Active

inhibition [3]: < 50%
SMILES: CCOc1ccc(N(Cc2ccc(N(CC(=O)OC)S(C)(=O)=O)cc2)S(=O)(=O)Cc2ccccc2)cc1C(=O)OC
